PubChem BioAssay (NCI)
Where “and” joins values, the source holds several entries; their conditions need not be identical. Equal values may be shown once.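 All cell lines were grown in 96-well plates and treated with compound for 48 hours. At the GI50, growth is halved. TGI denotes the concentration required for complete inhibition of growth.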

Legend:
Test in all cases: NCI tumour cell line growth inhibition, 48 h
DMS 114 small cell lung = system: DMS 114 small cell lung
DMS 273 small cell lung = system: DMS 273 small cell lung
LXFL 529 NSCLC = system: LXFL 529 NSCLC
M19-MEL melanoma = system: M19-MEL melanoma
SNB-78 CNS = system: SNB-78 CNS
HS 578T breast = system: HS 578T breast
MCF7 breast = system: MCF7 breast
MDA-MB-231 breast = system: MDA-MB-231 breast
NCI/ADR-RES ovarian = system: NCI/ADR-RES ovarian
RXF-631 renal = system: RXF-631 renal

Row | SMILES | TGI (DMS 114 small cell lung) | TGI (DMS 273 small cell lung) | TGI (LXFL 529 NSCLC) | TGI (M19-MEL melanoma) | TGI (SNB-78 CNS) | GI50 (HS 578T breast) | TGI (HS 578T breast) | GI50 (MCF7 breast) | TGI (MCF7 breast) | GI50 (MDA-MB-231 breast) | TGI (MDA-MB-231 breast) | GI50 (NCI/ADR-RES ovarian) | TGI (NCI/ADR-RES ovarian) | TGI (RXF-631 renal) | GI50 (LXFL 529 NSCLC)
1 | O=C1C=CC=CC2CC=C[C@@H](O)C12 (stereo partly specified) | 38.7 µM | 51.5 µM | 36.2 µM | 34.2 µM | > 100 µM | – | – | – | – | – | – | – | – | – | –
2 | Cc1ccc(S(=O)(=O)NCCNC2=CC(=O)c3nc4ccccc4c4ccnc2c34)cc1 | – | – | – | – | – | 27 µM | 79.9 µM | 12.9 µM | 32.7 µM | 24 µM | 66.1 µM | 17 µM | 55.4 µM | – | –
3 | CCOC(=O)C1=C(c2ccccc2)N(C)c2ccccc2S1 | – | – | – | – | – | – | 72.3 µM | – | 78.8 µM | – | 58.9 µM | – | 65.1 µM | – | –
4 | CSC(CC(=O)O)C(=O)O (stereo unspecified) | – | – | – | – | – | – | > 100 µM | – | > 100 µM | – | > 100 µM | – | > 100 µM | – | –
5 | COc1cc(/C=C2\CCC/C(=C\c3cc(OC)c(O)c(OC)c3)C2=O)cc(OC)c1O | – | – | – | – | – | – | > 100 µM | 4 µM | 75 µM and > 100 µM | – | 10.8 µM | – | – | – | –
6 | COc1ccc(-c2nc3sc(-c4ccc(Cl)cc4)cn3n2)cc1 | – | – | – | – | – | 2.31 µM | > 50 µM | 2.62 µM | > 50 µM | 2.06 µM | 16.7 µM | 3.75 µM | > 50 µM | – | –
7 | NCCCOCC(=O)O | > 100 µM | > 100 µM | > 100 µM | > 100 µM | > 100 µM | – | – | – | – | – | – | – | – | – | –
8 | CC1CCP(=O)(c2ccccc2)c2ccccc21 (stereo unspecified) | > 100 µM | 90.2 µM | > 100 µM | 58.5 µM | > 100 µM | – | – | – | – | – | – | – | – | – | –
9 | CC1CC#CCOC(=O)CCCC1=O (stereo unspecified) | > 100 µM | > 100 µM | > 100 µM | > 100 µM | > 100 µM | – | – | – | – | – | – | – | – | – | –
10 | O=C(Nc1cccs1)c1c(O)[nH]c(=S)[nH]c1=O | > 100 µM | – | – | – | – | – | – | – | – | – | – | – | – | > 100 µM | –
11 | C/C(=N\O)c1cccc(Nc2cc(-n3ccnn3)c3ccccc3n2)c1 | – | – | – | – | – | 16.4 µM | 87.8 µM | > 100 µM | > 100 µM | 10.2 µM | 25.9 µM | 20.8 µM | > 100 µM | – | –
12 | CCC(=O)O[C@H]1CC[C@H]2[C@@H]3CC[C@H]4CC(=O)[C@H](C)C[C@]4(C)[C@H]3CC[C@]12C | – | – | – | – | – | 44 µM | > 100 µM | 23.9 µM | > 66.1 µM | > 90.8 µM | > 100 µM | 38.3 µM | > 100 µM | – | –
13 | O=C1C(c2c[nH]c3ccccc23)=C(c2c[nH]c3ccccc23)C(=O)N1O | – | – | – | – | – | > 19.7 µM | > 25 µM | > 25 µM | > 25 µM | > 19.4 µM | > 25 µM | > 25 µM | > 25 µM | – | –
14 | O=C(Nc1ccc(F)cc1)c1ccc(NC2=C(Cl)C(=O)N(Cc3ccccc3)C2=O)cc1 | – | – | – | – | – | 13.2 µM | 62.3 µM | 6.24 µM | > 100 µM | 17.2 µM | 38 µM | 53.3 µM | > 100 µM | – | –
15 | O=Nc1c(-c2c(O)[nH]c3ccc([N+](=O)[O-])cc23)[nH]c2ccc(O)cc12 | – | – | – | – | – | 0.345 µM | > 100 µM | 0.247 µM | > 100 µM | 0.5 µM | > 52.7 µM | 1.44 µM | > 100 µM | – | –
16 | OC1c2ccccc2C2(O)C1C(c1ccccc1)C(c1ccccc1)C2(O)c1ccccc1 (stereo unspecified) | 41.8 µM | 23.5 µM | 54.6 µM | 38 µM | – | – | – | – | – | – | – | – | – | – | –
17 | O=Cc1ccccc1OCCOc1cc(OCCOc2ccccc2C=O)c(OCCOc2ccccc2C=O)cc1OCCOc1ccccc1C=O | > 100 µM | > 100 µM | > 100 µM | > 100 µM | > 100 µM | – | – | – | – | – | – | – | – | – | –
18 | COc1ccc(-c2oc3c(OC)c(OC)c(OC)c(O)c3c(=O)c2OC)cc1OC | – | – | – | – | – | – | 17.3 µM | – | > 35.1 µM | – | > 100 µM | – | > 72 µM | – | –
19 | CC(C)CNCC(O)COc1ccc(C(C)(C)c2ccc(OCC(O)CNCC(C)C)cc2)cc1 (stereo unspecified) | – | – | – | – | – | 5 µM | 21.9 µM | 1.73 µM | 3.48 µM | 1.5 µM | 3.25 µM | 7.63 µM | 21.4 µM | – | –
20 | C1C[OH+]CC[OH+]CCNCC[OH+]CC[OH+]CCN1.[Cl-].[Pt+4] | – | – | > 100 µM | – | – | – | – | – | – | – | – | – | – | – | 63.7 µM
21 | COc1ccc2c(c1)/C(=C\c1cccnc1)C(=O)N2 | – | – | – | – | – | 31.1 µM | 94.7 µM | 10.9 µM | 53.4 µM | 16.3 µM | 35.5 µM | 25.4 µM | 70.1 µM | – | –
22 | COC[C@@H](N=CN1CCc2cc(OC)c(OC)cc2[C@@H]1C)C(C)(C)C | > 100 µM | – | > 100 µM | > 100 µM | – | – | – | – | – | – | – | – | – | > 100 µM | –
23 | O=C(O)[C@@H]1[C@H](C(=O)O)[C@H](C(=O)O)C[C@@H]1C(=O)O | – | – | – | – | – | – | > 100 µM | – | > 100 µM | – | > 100 µM | – | > 100 µM | – | –
24 | CCn1c(C(=O)N(C2CC2)C2CC2)cc2c3c(ncn3C)c(Nc3cc(C)n(C)n3)nc21 | – | – | – | – | – | 3.63 µM | > 100 µM | > 100 µM | > 100 µM | 35.5 µM | > 100 µM | > 100 µM | > 100 µM | – | –
25 | COc1ccc(NC(=O)C(=O)Cc2nc3ccc([N+](=O)[O-])cc3[nH]c2=O)c(OC)c1 | > 100 µM | > 100 µM | > 100 µM | > 100 µM | – | – | – | – | – | – | – | – | – | – | –
26 | COC(=O)C(C(=O)C(=O)Nc1ccc(C(F)(F)F)cc1[N+](=O)[O-])c1csc(-n2nc(-c3ccccc3)cc2-c2ccccc2)n1 (stereo unspecified) | > 100 µM | > 100 µM | > 100 µM | > 100 µM | > 100 µM | – | – | – | – | – | – | – | – | – | –
27 | O=C(/C=C/c1ccccc1)CC1OC(=O)c2ccccc21 (stereo unspecified) | > 100 µM | > 100 µM | > 100 µM | > 100 µM | – | – | – | – | – | – | – | – | – | – | –
28 | Oc1ccc(C(c2ccc(O)cc2)c2ccc(Cl)cn2)cc1 | – | – | – | – | – | 0.0216 µM | 0.0624 µM | 0.0546 µM | 0.545 µM | 28 µM | > 100 µM | 0.0512 µM | 0.284 µM | – | –
29 | COc1ccc2c(c1)C(=O)c1c-2n(CCCN=[N+]=[N-])c(=O)c2cc(N(C)C)ccc12 | – | – | – | – | – | 37.5 µM | > 100 µM | > 100 µM | > 100 µM | > 100 µM | > 100 µM | > 100 µM | > 100 µM | – | –
